# Measured values: US8846947B2, “Benzimidazoles and related analogs as sirtuin modulators” (GlaxoSmithKline LLC, priority 2008, dated 2014)
# Target: T1, SIRT1 (Homo sapiens, UniProt Q96EB6)
# T1 sequence (Q96EB6 1-747): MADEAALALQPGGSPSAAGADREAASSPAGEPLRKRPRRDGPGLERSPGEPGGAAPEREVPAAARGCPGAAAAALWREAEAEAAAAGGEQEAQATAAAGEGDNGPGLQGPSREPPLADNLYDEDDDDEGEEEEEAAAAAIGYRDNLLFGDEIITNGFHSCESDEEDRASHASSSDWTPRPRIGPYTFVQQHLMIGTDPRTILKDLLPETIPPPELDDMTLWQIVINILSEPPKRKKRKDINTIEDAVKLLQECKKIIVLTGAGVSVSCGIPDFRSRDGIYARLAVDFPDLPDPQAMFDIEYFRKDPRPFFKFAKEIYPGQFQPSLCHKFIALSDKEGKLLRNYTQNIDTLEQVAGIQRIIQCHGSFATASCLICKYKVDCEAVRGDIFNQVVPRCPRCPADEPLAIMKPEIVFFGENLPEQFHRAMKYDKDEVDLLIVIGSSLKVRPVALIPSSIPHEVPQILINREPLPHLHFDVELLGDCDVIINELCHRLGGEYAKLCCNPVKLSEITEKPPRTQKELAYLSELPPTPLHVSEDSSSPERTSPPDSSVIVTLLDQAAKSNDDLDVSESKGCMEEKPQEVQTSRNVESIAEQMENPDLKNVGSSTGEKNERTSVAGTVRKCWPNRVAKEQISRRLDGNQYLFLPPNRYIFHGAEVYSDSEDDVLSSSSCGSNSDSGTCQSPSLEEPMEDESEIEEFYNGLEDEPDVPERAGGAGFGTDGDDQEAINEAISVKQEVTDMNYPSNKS
# Assay: Mass spectrometry based SIRT1 deacetylase activation assay (acetylated p53-derived peptide substrate)
# Type: biochemical
# Settings: 0.5 μM peptide substrate, 120 μM βNAD+, 10 nM SIRT1, 25 minutes at 25° C.
SMILES,EC1.5,Fold Act. (percent maximum fold activation)
C[C@@H]1CN(CCOc2ccccc2-c2nc3c(C(=O)Nc4ccccn4)cccc3[nH]2)C[C@H](C)O1 [Compound 610],B (EC1.5 1-25 uM),A (Fold activation >200%)
O=C(Nc1nccs1)c1cccc2[nH]c(-c3ccccc3OCCN3CCC(F)(F)C3)nc12 [Compound 614],C (EC1.5 >25 uM),B (Fold Activation <200%)
CC(C)(C)NCCOc1ccccc1-c1nc2c(C(=O)Nc3ccccn3)cccc2[nH]1 [Compound 616],B (EC1.5 1-25 uM),A (Fold activation >200%)
FC(F)(F)c1cccc(-c2nc3c(NCc4cccnc4)cccc3[nH]2)c1 [Compound 617],B (EC1.5 1-25 uM),B (Fold Activation <200%)
c1cncc(CNc2cccc3[nH]c(-c4cccc(N5CCOCC5)c4)nc23)c1 [Compound 619],B (EC1.5 1-25 uM),B (Fold Activation <200%)
Cc1cccc(-c2nc3c(C(=O)Nc4nccs4)cccc3[nH]2)c1OCCN1CCOCC1 [Compound 626],B (EC1.5 1-25 uM),A (Fold activation >200%)
COc1cc(C(=O)Nc2nccs2)c2nc(-c3ccccc3C(F)(F)F)[nH]c2c1 [Compound 634],A (EC1.5<1.0 uM),A (Fold activation >200%)
COc1cc(C(=O)Nc2nccs2)c2nc(-c3ccc(Cl)cc3C(F)(F)F)[nH]c2c1 [Compound 635],A (EC1.5<1.0 uM),A (Fold activation >200%)
Cc1cnc(NC(=O)c2cncc3[nH]c(-c4ccccc4C(F)(F)F)nc23)s1 [Compound 639],A (EC1.5<1.0 uM),A (Fold activation >200%)
O=C(Nc1nccs1)c1cc(N2CCOCC2)cc2[nH]c(-c3ccc(Cl)cc3C(F)(F)F)nc12 [Compound 640],A (EC1.5<1.0 uM),A (Fold activation >200%)
O=C(Nc1ccccn1)c1cc(N2CCOCC2)cc2[nH]c(-c3ccc(Cl)cc3C(F)(F)F)nc12 [Compound 641],A (EC1.5<1.0 uM),A (Fold activation >200%)
O=C(Nc1cccnc1)c1cc(N2CCOCC2)cc2[nH]c(-c3ccc(Cl)cc3C(F)(F)F)nc12 [Compound 642],A (EC1.5<1.0 uM),A (Fold activation >200%)
O=C(Nc1cccnn1)c1cc(N2CCOCC2)cc2[nH]c(-c3ccc(Cl)cc3C(F)(F)F)nc12 [Compound 643],A (EC1.5<1.0 uM),A (Fold activation >200%)
O=C(Nc1nccs1)c1cc(N2CCOCC2)cc2[nH]c(-c3cc(F)ccc3C(F)(F)F)nc12 [Compound 644],A (EC1.5<1.0 uM),A (Fold activation >200%)
O=C(Nc1cccnc1)c1cc(N2CCOCC2)cc2[nH]c(-c3cc(F)ccc3C(F)(F)F)nc12 [Compound 646],A (EC1.5<1.0 uM),A (Fold activation >200%)
O=C(Nc1cccnn1)c1cc(N2CCOCC2)cc2[nH]c(-c3cc(F)ccc3C(F)(F)F)nc12 [Compound 647],A (EC1.5<1.0 uM),A (Fold activation >200%)

# Now from value to compound:
EC1.5,Fold Act. (percent maximum fold activation),SMILES
A (EC1.5<1.0 uM),A (Fold activation >200%),O=C(Nc1nccs1)c1cccc2[nH]c(-c3ccc(N4CC[C@@H](F)C4)cc3C(F)(F)F)nc12 [Compound 608]
B (EC1.5 1-25 uM),A (Fold activation >200%),O=C(Nc1ccccn1)c1cccc2[nH]c(-c3ccc(N4CC[C@@H](F)C4)cc3C(F)(F)F)nc12 [Compound 609]
C (EC1.5 >25 uM),B (Fold Activation <200%),O=C(Nc1nccs1)c1cccc2[nH]c(-c3ccccc3OCCN3CCCC(F)(F)C3)nc12 [Compound 611]
C (EC1.5 >25 uM),B (Fold Activation <200%),O=C(Nc1ccccn1)c1cccc2[nH]c(-c3ccccc3OCCN3CCCC(F)(F)C3)nc12 [Compound 612]
B (EC1.5 1-25 uM),B (Fold Activation <200%),O=C(Nc1ccccn1)c1cccc2[nH]c(-c3ccccc3OCCN3CCC(F)(F)CC3)nc12 [Compound 613]
C (EC1.5 >25 uM),B (Fold Activation <200%),O=C(Nc1ccccn1)c1cccc2[nH]c(-c3ccccc3OCCN3CCC(F)(F)C3)nc12 [Compound 615]
C (EC1.5 >25 uM),B (Fold Activation <200%),FC(F)(F)c1ccccc1-c1nc2c(NCc3cccnc3)cccc2[nH]1 [Compound 618]
A (EC1.5<1.0 uM),A (Fold activation >200%),"O=C(Nc1cccc(CN2CCCC2)n1)c1cccc2[nH]c(-c3ccccc3C(F)(F)F)nc12 [Compound 620, N-(6-(pyrrolidin-1-ylmethyl)pyridin-2-yl)-2-(2-(trifluoromethyl)phenyl)-1H-benzo[d]imidazole-4-carboxamide]"
A (EC1.5<1.0 uM),A (Fold activation >200%),"O=C(Nc1ccc(CN2CCNCC2)cn1)c1cccc2[nH]c(-c3ccccc3C(F)(F)F)nc12 [Compound 621, N-(5-(piperazin-1-ylmethyl)pyridin-2-yl)-2-(2-(trifluoromethyl)phenyl)-1H-benzo[d]imidazole-4-carboxamide]"
A (EC1.5<1.0 uM),A (Fold activation >200%),O=C(Nc1cccc(CN2CCCC2)n1)c1cccc2[nH]c(-c3ccc(Cl)cc3C(F)(F)F)nc12 [Compound 622]
A (EC1.5<1.0 uM),A (Fold activation >200%),O=C(Nc1cccc(CN2CCCC2)n1)c1cccc2[nH]c(-c3cc(F)ccc3C(F)(F)F)nc12 [Compound 623]
B (EC1.5 1-25 uM),A (Fold activation >200%),"O=C(Nc1ccc(CN2CCOCC2)cn1)c1cccc2[nH]c(-c3cc(F)ccc3C(F)(F)F)nc12 [Compound 624, 2-(5-fluoro-2-(trifluoromethyl)phenyl)-N-(5-(morpholinomethyl)pyridin-2-yl)-1H-benzo[d]imidazole-4-carboxamide]"
A (EC1.5<1.0 uM),A (Fold activation >200%),O=C(Nc1ccc(CN2CCCC2)cn1)c1cccc2[nH]c(-c3cc(F)ccc3C(F)(F)F)nc12 [Compound 625]
B (EC1.5 1-25 uM),A (Fold activation >200%),Cc1cccc(-c2nc3c(C(=O)Nc4ccccn4)cccc3[nH]2)c1OCCN1CCOCC1 [Compound 627]
A (EC1.5<1.0 uM),A (Fold activation >200%),"O=C(Nc1nccs1)c1cc(N2CCOCC2)cc2[nH]c(-c3ccccc3C(F)(F)F)nc12 [Compound 628, 6-morpholino-N-(thiazol-2-yl)-2-(2-(trifluoromethyl)phenyl)-1H-benzo[d]imidazole-4-carboxamide]"
A (EC1.5<1.0 uM),A (Fold activation >200%),O=C(Nc1ccccn1)c1cc(N2CCOCC2)cc2[nH]c(-c3ccccc3C(F)(F)F)nc12 [Compound 629]
A (EC1.5<1.0 uM),A (Fold activation >200%),O=C(Nc1cccnc1)c1cc(N2CCOCC2)cc2[nH]c(-c3ccccc3C(F)(F)F)nc12 [Compound 630]
A (EC1.5<1.0 uM),A (Fold activation >200%),O=C(Nc1cccnn1)c1cc(N2CCOCC2)cc2[nH]c(-c3ccccc3C(F)(F)F)nc12 [Compound 631]
A (EC1.5<1.0 uM),A (Fold activation >200%),"COc1cc(C(=O)Nc2ccccn2)c2nc(-c3ccccc3C(F)(F)F)[nH]c2c1 [Compound 632, 6-methoxy-N-(pyridin-2-yl)-2-(2-(trifluoromethyl)phenyl)-1H-benzo[d]imidazole-4-carboxamide]"
A (EC1.5<1.0 uM),A (Fold activation >200%),O=C(Nc1ccccn1)c1cncc2[nH]c(-c3ccccc3C(F)(F)F)nc12 [Compound 636]
A (EC1.5<1.0 uM),A (Fold activation >200%),O=C(Nc1cccnc1)c1cncc2[nH]c(-c3ccccc3C(F)(F)F)nc12 [Compound 637]
A (EC1.5<1.0 uM),A (Fold activation >200%),O=C(Nc1cccnn1)c1cncc2[nH]c(-c3ccccc3C(F)(F)F)nc12 [Compound 638]
A (EC1.5<1.0 uM),A (Fold activation >200%),O=C(Nc1ccccn1)c1cc(N2CCOCC2)cc2[nH]c(-c3cc(F)ccc3C(F)(F)F)nc12 [Compound 645]
